Data on two substances can be found in EP0185623A1, “Milbemycin derivatives for combating insects and parasites” (CIBA-GEIGY AG, priority 1984, dated 1986).

Data set [1] concerns Haemonchus contortus und Trychostrongylus colubriformis. The experiment in a line: B-5 test on sheep infected with nematodes, worm egg count in faeces. Conditions: single dose. The format is in vivo, Schafe. The method, then: B-5. Versuch an mit Nematoden (Haemonchus concortus und Trichostrongylus colubriformis) infizierten Schafen
Der Wirkstoff wird als Suspension formuliert mit einer Magensonde oder durch Injektion in den Pansen eines Schafes gegeben, das mit Haemonchus contortus und Trychostrongylus colubriformis künstlich infiziert worden ist. Pro Dosis werden 1 bis 3 Tiere verwendet. Jedes Schaf wird nur einmal mit einer einzigen Dosis behandelt, und zwar wahlweise mit 2 mg oder 1 mg/kg Körpergewicht. Die Evaluierung erfolgt durch Vergleich der Anzahl der vor und nach Behandlung im Kot der Schafe ausgeschiedenen Wurmeier.
Gleichzeitig und gleichartig infizierte aber unbehandelte Schafe dienen als Kontrolle. Schafe, die mit einer der Verbindungen der Formel I bei 1 mg/kg behandelt wurden, zeigten im Vergleich zu unbehandelten, aber infizierten Vergleichsgruppen keinen Nematodenbefall (= komplette Reduktion der Wurmeier im Kot). […] Schafe, die mit 0,1 mg/kg Köpergewicht der Verbindung Nr. 1.1 (A) und der Verbindung Nr. 1.15 (B) behandelt wurden, zeigten im Vergleich zur Kontrolle eine 77%ige (A) und eine 97Xige (B) Wirkung, während 5-0-(2,3,4,6-Tetra-0-acetyl-1-0-glucanopyranosyl)-milbemycin A3 bei dieser Konzentration unwirksam war.

The subject of data set [2] is L1-Larven von Lucilia sericata. The experiment in a line: B-3 action against L1 larvae in larval culture medium. Conditions: 100 ppm, after 4 days. The format is in vivo. On the procedure:
B-3. Wirkung gegen L1-Larven von Lucilia sericata
1 ml einer wässrigen Suspension der zu prüfenden Aktivsubstanz wird so mit 3 ml eines speziellen Larvenzuchtmediums bei ca. 50°C vermischt, dass ein Homogenisat von wahlweise 250 ppm oder 125 ppm Wirkstoffgehalt entsteht. In jede Reagenzglas-Probe werden ca. 30 Lucilia-Larven (L1) eingesetzt. Nach 4 Tagen wird die Mortalitätsrate bestimmt. Die Verbindungen der Formel 1 erzielten mit 250 ppm, die Verbindungen Nr. 1.1, 1.3, 1.15, 1.22, 1.27, 1.35, 1.37, 1.38 und 1.43 bereits bei 100 ppm eine Wirkung von 100 %.

For data set [3], the system named is Boophilus microplus (Biarra-Stamm). The experiment in a line: B-4 acaricidal action, injection into engorged female ticks. It counts as in vivo. Conditions: dose per tick at which 9 of 10 females lay non-hatching eggs after 30 days. On the procedure: B-4. Akarizide Wirkung gegen Boophilus microplus (Biarra-Stamm
Auf einer PVC-Platte wird waagrecht ein Klebstreifen so befestigt, das darauf 10 mit Blut vollgesogene Zecken-Weibchen von Boophilus microplus (Biarra-Stamm) nebeneinander in einer Reihe mit dem Rücken aufgeklebt werden können. Jeder Zecke wird mit einer Injektionsnadel 1 µl einer Flüssigkeit injiziert, die eine 1:1-Mischung von Polyethylenglykol und Aceton darstellt und in der als bestimmte Wirkstoffmenge […] pro Zecke gelöst ist. Kontrolltiere erhalten eine wirkstofffreie Injektion. Nach der Behandlung werden die Tiere unter Normalbedingungen in einem Insektarium bei ca. 28°C und 80 % relativer Luftfeuchtigkeit gehalten, bis die Eiablage erfolgt und die Larven aus den Eiern der Kontrolltiere geschlüpft sind.
Die Aktivität einer geprüften Substanz wird mit der IR90 bestimmt, d.h. es wird jene Wirkstoffdosis ermittelt, bei der noch nach 30 Tagen 9 von 10 Zeckenweibchen (= 90 %) Eier ablegen, die nicht schlupffähig sind.

Take “5-0-(2,3,4,6-Tetra-0-acetyl-1-0-glucanopyranosyl)-milbemycin A3 [Tetraacetylglucopyranosyl-milbemycin A3]”: the “Wirkung im Vergleich zur Kontrolle” value in data set [1] (0,1 mg/kg Körpergewicht) is “unwirksam”. The “Wirkung (Reduktion der Wurmeier im Kot)” value in data set [1] (2 mg/kg) was “annähernd wirkungslos”.

Take “5-0-(1-0-Galactopyranosyl)-milbemycin D [1.38]”: in data set [2], the “Wirkung (Mortalitätsrate)” value is given as 100%. The IR90 in data set [3] was 0,5 µg.
